Reference: patent US7157487B2, “Vla-4 inhibitors” (Daiichi Pharmaceutical Co., Ltd., priority 2000, dated 2007)

target: T1, integrins haα4 and β1 (VLA-4) expressed on CHO cells (Homo sapiens, UniProt P05556+P13612); assay: In vitro Evaluation Test (1): binding of Eu3+-hVCAM-1 D1D7-IgG to CHO cells expressing integrins α4 and β1; conditions: inhibition of Eu3+-hVCAM-1 D1D7-IgG binding to CHO cells expressing α4β1; Ki calculated from IC50
T1 construct: expressed in transfected cells; host or cells: CHO cells
T1 sequence (P13612 34-1032): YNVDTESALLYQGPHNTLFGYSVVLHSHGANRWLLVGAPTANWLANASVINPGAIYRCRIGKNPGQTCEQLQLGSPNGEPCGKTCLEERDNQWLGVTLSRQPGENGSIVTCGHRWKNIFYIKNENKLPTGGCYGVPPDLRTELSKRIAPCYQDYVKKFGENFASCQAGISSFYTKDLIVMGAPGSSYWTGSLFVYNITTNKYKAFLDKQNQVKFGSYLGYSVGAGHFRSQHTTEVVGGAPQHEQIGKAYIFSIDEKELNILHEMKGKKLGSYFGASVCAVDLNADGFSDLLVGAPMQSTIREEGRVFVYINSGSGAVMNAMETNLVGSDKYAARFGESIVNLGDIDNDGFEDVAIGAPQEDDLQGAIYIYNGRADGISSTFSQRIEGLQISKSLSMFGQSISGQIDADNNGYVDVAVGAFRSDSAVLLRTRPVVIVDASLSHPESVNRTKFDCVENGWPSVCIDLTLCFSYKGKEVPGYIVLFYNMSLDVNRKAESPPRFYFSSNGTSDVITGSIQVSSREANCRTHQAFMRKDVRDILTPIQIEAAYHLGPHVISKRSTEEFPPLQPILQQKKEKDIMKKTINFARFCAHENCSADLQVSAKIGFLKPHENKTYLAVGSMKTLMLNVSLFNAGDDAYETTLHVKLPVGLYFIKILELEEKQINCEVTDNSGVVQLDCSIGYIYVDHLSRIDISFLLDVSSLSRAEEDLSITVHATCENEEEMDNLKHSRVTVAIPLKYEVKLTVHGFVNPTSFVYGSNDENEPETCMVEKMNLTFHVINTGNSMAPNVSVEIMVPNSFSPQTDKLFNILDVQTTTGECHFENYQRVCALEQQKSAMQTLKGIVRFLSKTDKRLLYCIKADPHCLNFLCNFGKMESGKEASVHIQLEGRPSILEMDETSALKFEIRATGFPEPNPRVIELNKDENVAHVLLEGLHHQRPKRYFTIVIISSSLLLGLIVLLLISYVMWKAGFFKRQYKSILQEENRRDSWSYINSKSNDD
T1 sequence (P05556 21-798): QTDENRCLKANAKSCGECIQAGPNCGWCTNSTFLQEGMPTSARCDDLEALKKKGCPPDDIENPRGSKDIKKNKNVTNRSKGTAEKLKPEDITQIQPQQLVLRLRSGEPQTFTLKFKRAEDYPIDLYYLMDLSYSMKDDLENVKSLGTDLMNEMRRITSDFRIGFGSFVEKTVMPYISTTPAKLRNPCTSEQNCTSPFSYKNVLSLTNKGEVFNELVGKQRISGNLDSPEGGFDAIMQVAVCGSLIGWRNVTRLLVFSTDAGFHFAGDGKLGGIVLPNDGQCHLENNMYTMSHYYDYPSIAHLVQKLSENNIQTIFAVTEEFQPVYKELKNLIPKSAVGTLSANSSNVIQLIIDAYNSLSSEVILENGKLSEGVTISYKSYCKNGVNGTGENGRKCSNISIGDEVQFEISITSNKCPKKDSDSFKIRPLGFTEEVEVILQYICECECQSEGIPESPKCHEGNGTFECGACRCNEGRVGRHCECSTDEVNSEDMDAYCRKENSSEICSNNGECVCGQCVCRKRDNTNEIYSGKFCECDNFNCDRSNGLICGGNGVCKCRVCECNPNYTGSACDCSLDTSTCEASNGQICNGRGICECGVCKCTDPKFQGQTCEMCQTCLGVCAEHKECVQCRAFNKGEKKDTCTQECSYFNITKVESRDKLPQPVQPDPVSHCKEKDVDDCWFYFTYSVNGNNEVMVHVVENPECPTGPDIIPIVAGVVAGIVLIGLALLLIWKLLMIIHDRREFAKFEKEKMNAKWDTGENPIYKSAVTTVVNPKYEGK
Description: CHO cells forcedly expressed by the transduction of integrins haα4 and β1 were seeded in a Coster 3599 plate (3×10^4 cells/100 μl/well) and they were cultured for 2 days. After the medium was washed with buffer A* twice, 50 μl/well of Eu^3+-hVCAM-1 D1D7-IgG diluted to […] with an assay buffer ** was added. To the resulting well was added 50 μl/well of a test compound diluted with 2% DMS0-assay buffer (in the presence or absence of 6% human serum albumin) (to a well subjected to Scatchard analysis was added a solution diluted in another manner). After stirring for 5 minutes on a plate mixer, the plate was allowed to stand at room temperature for 1 hour. Then, the plate was washed four times with the buffer A and added with 100 μl/well of an enhancement reagent (DELFIA). The plate was shaken for 5 minutes on a plate mixer, followed by measurement of fluorescence intensity by a time-resolved fluorometer (DELFIA Wallac). From the binding ratio available by the following calculation formula: ((FT−FNS)−(FI−FNS))/(FT−FNS)×100, the IC50 (concentration inhibiting 50% of binding of CHO cells with hVCAM-1 D1D7-IgG) of the test compound was determined. In the above formula, FT means the fluorescence intensity of the well free of the test compound, FNS means the fluorescence intensity of the well free of the test compound and anti-hα4 antibody (SG/73), and FI means the fluorescence intensity of the well containing the test compound. The Kd indicating the binding strength and Bmax (maximum binding) were estimated within a range of 0.06 to 20 nM in accordance with the Scatchard analysis method.
The value Ki was calculated based on:
[formula] ((L) means a ligand concentration). (* buffer A: 25 mM HEPES (pH 7.5), 150 mM NaCl, 1 mM Ca^2+, 1 MM Mg^2+, 4 mM Mn^2+; ** assay buffer: 25 mM HEPES (pH 7.5), 150 mM NaCl, 1 mM Ca^2+, 1 mM Mg^2+, 4 mM Mn^2+, 0.1% BSA, 20 μM DTPA, with/without 6% ALBUMIN, HUMAN SERUM (C/N A-1653, SIGMA)) In vitro Evaluation Test (2)

In order of rising Ki:
1. O=C(Nc1ccc(CC(=O)N2C[C@@H](F)C[C@H]2CO[C@H]2CC[C@H](C(=O)O)CC2)cc1Br)c1c[nH]c2ccccc12 [Example 64, trans-4-(1-((3-Bromo-4-((3-indolylcarbonyl)amino)phenyl)acetyl)-(4S)-fluoro-(2S)-pyrrolidinylmethoxy)cyclohexanecarboxylic acid]  0.31 nM
2. COc1cc(CC(=O)N2C[C@@H](F)C[C@H]2CO[C@H]2CC[C@H](C(=O)O)CC2)c(F)cc1NC(=O)c1cn(C)c2ccccc12 [Example 76, trans-4-((4S)-Fluoro-1-(2-fluoro-5-methoxy-4-((1-methyl-1H-3-indolylcarbonyl)amino)phenylacetyl)-(2S)-pyrrolidinylmethoxy)cyclohexanecarboxylic acid]  1.6 nM
3. CS[C@H]1C[C@@H](CO[C@H]2CC[C@H](C(=O)O)CC2)N(C(=O)Cc2ccc3nc(Nc4cc(F)ccc4C)oc3c2F)C1 [Example 126, trans-4-(1-((2-(5-Fluoro-2-methylphenylamino)-7-fluoro-6-benzoxazolyl)acetyl)-(4S)-methylthio-(2S)-pyrrolidinylmethoxy)cyclohexanecarboxylic acid]  2 nM
4. Cn1cc(C(=O)Nc2cc(F)c(CC(=O)N3C[C@@H](F)C[C@H]3C(=O)N[C@H]3CC[C@H](C(=O)O)CC3)cc2Cl)c2ccccc21 [Example 111, trans-4-((1-(5-Chloro-2-fluoro-4-((1-methyl-3-indolylcarbonyl)amino)phenylacetyl)-(4S)-fluoro-(2S)-pyrrolidinyl)carbonylamino)cyclohexanecarboxylic acid]  2.6 nM
5. Cn1cc(C(=O)Nc2cc(F)c(CC(=O)N3C[C@@H](S(C)(=O)=O)C[C@H]3CO[C@H]3CC[C@H](C(=O)O)CC3)cc2Cl)c2ccccc21 [Example 128, trans-4-(1-((5-Chloro-2-fluoro-4-((1-methyl-3-indolylcarbonyl)amino)phenyl)acetyl)-(4S)-methanesulfonyl-(2S)-pyrrolidinylmethoxy)cyclohexanecarboxylic acid]  2.7 nM
6. Cc1ccccc1Nc1nc2ccc(CC(=O)N3CCC[C@H]3COC3CCC(C(=O)O)CC3)cc2o1 (single isomer, unassigned) [22 (Isomer B)]  3.5 nM
7. Cc1ccc(F)cc1Nc1nc2ccc(CC(=O)N3C[C@@H](F)C[C@H]3CO[C@H]3CC[C@H](C(=O)O)CC3)cc2o1 [Example 41, trans-4-(1-((2-(5-Fluoro-2-methylphenylamino)-6-benzoxazolyl)acetyl)-(4S)-fluoro-(2S)-pyrrolidinylmethoxy)cyclohexanecarboxylic acid]  3.8 nM
8. O=C(Nc1ccc(CC(=O)N2C[C@@H](F)C[C@H]2C(=O)N[C@H]2CC[C@H](C(=O)O)CC2)cc1Cl)c1nccc2ccccc12 [Example 112, trans-4-((1-(3-Chloro-4-((1-isoquinolinylcarbonyl)amino)phenylacetyl)-(4S)-fluoro-(2S)-pyrrolidinyl)carbonylamino)cyclohexanecarboxylic acid]  6.5 nM
9. Cc1ccccc1Nc1nc2ccc(CC(=O)N3C[C@@H](N(C)C)C[C@H]3COc3ccc(C(=O)O)cc3)cc2o1 [Example 7, 4-((4S)-Dimethylamino-1-(2-(2-methylphenylamino)-6-benzoxazolylacetyl)-(2S)-pyrrolidinylmethoxy)benzoic acid]  7.1 nM
10. CS[C@H]1C[C@@H](CO[C@H]2CC[C@H](C(=O)O)CC2)N(C(=O)Cc2cc(Cl)c(NC(=O)c3nn(C)c4ccccc34)cc2F)C1 [Example 127, trans-4-(1-((5-Chloro2-fluoro-4-((1-methyl-3-indazolylcarbonyl)amino)phenyl)acetyl)-(4S)-methylthio-(2S)-pyrrolidinylmethoxy)cyclohexanecarboxylic acid]  9.7 nM
11. Cn1cc(C(=O)Nc2cc(F)c(CC(=O)N3CC(F)(F)C[C@H]3CO[C@H]3CC[C@H](C(=O)O)CC3)cc2Cl)c2ccccc21 (mixture of isomers) [Example 143, trans-4-(1-(5-Chloro-2-fluoro-4-(1-methyl-3-indolylcarbonylamino)phenylacetyl)-4,4-difluoro-(2S)-pyrrolidinylmethoxy)cyclohexanecarboxylic acid and cis-4-(1-(5-chloro-2-fluoro-4-(1-methyl-3-indolylcarbonylamino)phenylacetyl)-4,4-difluoro-(2S)-pyrrolidinylmethoxy)cyclohexanecarboxylic acid]  17 nM
12. Cc1ccccc1Nc1nc2ccc(CC(=O)N3C[C@@H](F)C[C@H]3COc3ccc(C(=O)O)cc3)cc2o1 [Example 2, 4-((4S)-Fluoro-1-(2-(2-methylphenylamino)-6-benzoxazolylacetyl)-(2S)-pyrrolidinylmethoxy)benzoic acid]  17 nM
13. O=C(Cc1ccc2nc(N3CCc4ccccc43)oc2c1)N1C[C@@H](F)C[C@H]1CO[C@H]1CC[C@H](C(=O)O)CC1 [Example 104]  20 nM
14. Cn1cc(C(=O)Nc2cc(F)c(CC(=O)N3C[C@@H](F)C[C@H]3CO[C@H]3CC[C@H](C(=O)O)CC3)cc2Cl)c2c(F)cccc21 [Example 75, trans-4-(1-((5-Chloro-2-fluoro-4-((4-fluoro-1-methyl-3-indolylcarbonyl)amino)phenyl)acetyl)-(4S)-fluoro-(2S)-pyrrolidinylmethoxy)cyclohexanecarboxylic acid]  21 nM
15. Cc1ccc(F)cc1Nc1nc2ccc(CC(=O)N3C[C@@H](F)C[C@H]3COc3ccc(C(=O)O)cc3)cc2o1 [Example 146, 4-(1-((2-(5-Fluoro-2-methylphenylamino)-6-benzoxazolyl)acetyl)-(4S)-fluoro-(2S)-pyrrolidinylmethoxy)benzoic acid]  21 nM
16. Cc1ccccc1Nc1nc2ccc(CC(=O)N3C[C@@H](O)C[C@H]3COc3ccc(C(=O)O)cc3)cc2o1 [Example 8, 4-((2S,4S)-4-Hydroxy-1-(2-(2-methylphenylamino)-6-benzoxazolylacetyl)-2-pyrrolidinylmethoxy)benzoic acid]  24 nM
17. Cn1cc(C(=O)Nc2cc(F)c(CC(=O)N3C[C@@H](F)C[C@H]3CCN3CCC(C(=O)O)CC3)cc2Cl)c2ccccc21 [Example 109, 1-(2-(1-((5-Chloro-2-fluoro-4-((1-methyl-3-indolylcarbonyl)amino)phenyl)acetyl)-(4S)-fluoro-(2R)-pyrrolidinyl)ethyl)-4-piperidinecarboxylic acid]  25 nM
18. Cc1ccccc1Nc1nc2ccc(CC(=O)N3C[C@@H](F)C[C@H]3C(=O)N3CCN(CC(=O)O)CC3)cc2o1 [Example 30, 4-((4S)-Fluoro-1-(2-(2-methylphenylamino)-6-benzoxazolylacetyl)-(2S)-pyrrolidinylcarbonyl)-1-piperazinylacetic acid]  40 nM
19. Cn1cc(C(=O)Nc2ccc(CC(=O)N3C[C@@H](F)C[C@H]3COc3ccc(C(=O)O)cc3)cc2Cl)c2ccccc21 [Example 147, 4-(1-((3-Chloro-4-((1-methyl-3-indolylcarbonyl)amino)phenyl)acetyl)-(4S)-fluoro-(2S)-pyrrolidinylmethoxy)benzoic acid]  40 nM
20. COC[C@@H]1C[C@@H](Oc2ccc(C(=O)O)cc2)CN1C(=O)Cc1ccc2nc(Nc3cc(F)ccc3C)oc2c1F [Example 159, 4-(1-((2-(5-Fluoro-2-methylphenylamino)-7-fluoro-6-benzoxazolyl)acetyl)-(2S)-methoxymethyl-(4R)-pyrrolidinyloxy)benzoic acid]  47 nM
21. O=C(Cc1ccc2nc(-c3nccc4ccccc34)oc2c1)N1C[C@@H](F)C[C@H]1CO[C@H]1CC[C@H](C(=O)O)CC1 [Example 102, trans-4-(1-(2-(1-Isoquinolinyl)-6-benzoxazolylacetyl)-(4S)-fluoro-(2S)-pyrrolidinylmethoxy)cyclohexanecarboxylic acid]  47 nM
22. C[C@@H](CO[C@H]1CC[C@H](C(=O)O)CC1)N(C)C(=O)Cc1cc(Cl)c(NC(=O)c2cn(C)c3ccccc23)cc1F [Example 144, trans-4-((2S)-((5-Chloro-2-fluoro-4-(1-methyl-3-indolylcarbonylamino)phenyl)-N-methylacetamido)-1-propoxy)-1-cyclohexanecarboxylic acid]  48 nM
23. COC[C@@H]1CC[C@@H](CO[C@H]2CC[C@H](C(=O)O)CC2)N1C(=O)Cc1cc(Cl)c(NC(=O)c2nn(C)c3ccccc23)cc1F [Example 168, trans-4-(1-((5-Chloro-2-fluoro-4-((1-methyl-3-indazolyl)carbonyl)aminophenyl)acetyl)-(5S)-methoxymethyl-(2S)-pyrrolidinylmethoxy)cyclohexanecarboxylic acid]  59 nM
24. Cc1ccc(F)cc1Nc1nc2ccc(CC(=O)N3CC[C@@H](O[C@H]4CC[C@H](C(=O)O)CC4)C3)c(F)c2o1 [Example 160, 4-(1-(2-(5-Fluoro-2-methylphenylamino)-7-fluoro-6-benzoxazolylacetyl)-(3R)-pyrrolidinyloxy)cyclohexanecarboxylic acid]  61 nM
